Key:
[1] = target: T1, 3-phosphoinositide-dependent protein kinase 1 (Homo sapiens, UniProt O15530); experiment: Inhibition of PDK1
T1 sequence (O15530 whole entry): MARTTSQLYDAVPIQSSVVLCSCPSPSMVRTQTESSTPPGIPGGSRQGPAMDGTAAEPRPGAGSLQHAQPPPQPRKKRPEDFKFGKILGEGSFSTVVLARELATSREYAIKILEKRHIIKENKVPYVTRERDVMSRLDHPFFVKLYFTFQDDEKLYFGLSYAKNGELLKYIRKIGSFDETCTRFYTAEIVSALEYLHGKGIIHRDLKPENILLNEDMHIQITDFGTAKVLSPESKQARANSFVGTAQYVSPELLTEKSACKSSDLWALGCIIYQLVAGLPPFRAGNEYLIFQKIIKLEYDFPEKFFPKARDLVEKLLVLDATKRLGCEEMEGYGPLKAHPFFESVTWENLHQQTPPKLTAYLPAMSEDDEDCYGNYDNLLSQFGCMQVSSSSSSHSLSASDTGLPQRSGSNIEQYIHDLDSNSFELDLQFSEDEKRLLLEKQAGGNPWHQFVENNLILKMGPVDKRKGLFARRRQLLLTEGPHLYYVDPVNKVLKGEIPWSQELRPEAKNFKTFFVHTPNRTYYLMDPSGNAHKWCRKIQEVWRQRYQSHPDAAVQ

[2] = tested on: K562; experiment: Antiproliferative activity against human K562 cells; format: functional, cell-based
[3] = target: T2, TGF-beta receptor type-1 (Homo sapiens, UniProt P36897); experiment: Inhibition of ALK5; conditions: read-out: pIC50 (converted)
T2 sequence (P36897 whole entry): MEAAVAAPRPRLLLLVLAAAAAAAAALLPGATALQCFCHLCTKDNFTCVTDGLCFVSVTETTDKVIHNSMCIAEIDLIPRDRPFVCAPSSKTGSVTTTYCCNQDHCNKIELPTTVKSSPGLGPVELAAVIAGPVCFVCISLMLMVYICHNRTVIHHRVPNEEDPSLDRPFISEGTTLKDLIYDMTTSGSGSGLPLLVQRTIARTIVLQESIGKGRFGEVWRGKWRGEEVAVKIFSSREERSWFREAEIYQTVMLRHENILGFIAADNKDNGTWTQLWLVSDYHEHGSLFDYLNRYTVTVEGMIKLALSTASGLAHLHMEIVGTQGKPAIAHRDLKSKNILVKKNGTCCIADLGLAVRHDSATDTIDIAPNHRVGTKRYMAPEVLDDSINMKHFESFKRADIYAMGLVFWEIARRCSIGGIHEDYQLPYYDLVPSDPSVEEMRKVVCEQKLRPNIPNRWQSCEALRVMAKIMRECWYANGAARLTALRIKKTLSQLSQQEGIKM

[4] = tested on: HEL; experiment: Antiproliferative activity against human HEL 92.1.7 cells; format: functional, cell-based
[5] = Antiproliferative activity against human F-36P cells; format: functional, cell-based
[6] = Antiproliferative activity against human OCI-AML3 cells; format: functional, cell-based; conditions: OCI-AML-3
[7] = target: Aurora kinase B (Homo sapiens, UniProt Q96GD4); experiment: Inhibition of aurora B
[8] = target: T3, Aurora kinase A (Homo sapiens, UniProt O14965); experiment: Inhibition of aurora A
T3 sequence (O14965 whole entry): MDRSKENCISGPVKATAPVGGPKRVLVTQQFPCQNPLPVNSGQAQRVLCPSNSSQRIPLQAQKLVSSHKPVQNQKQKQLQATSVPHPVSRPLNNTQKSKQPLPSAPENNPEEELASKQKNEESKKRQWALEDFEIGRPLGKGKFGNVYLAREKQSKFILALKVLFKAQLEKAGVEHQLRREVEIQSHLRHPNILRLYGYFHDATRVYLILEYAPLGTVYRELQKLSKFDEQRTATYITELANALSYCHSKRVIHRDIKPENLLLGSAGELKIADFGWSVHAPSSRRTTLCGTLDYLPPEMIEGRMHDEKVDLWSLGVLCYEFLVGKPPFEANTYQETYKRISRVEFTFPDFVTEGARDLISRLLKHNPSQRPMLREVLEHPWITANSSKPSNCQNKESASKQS

[9] = target: T1, 3-phosphoinositide-dependent protein kinase 1; experiment: Inhibition of PDK1-mediated AKT phosphorylation at Thr308 residue in human PC3 cells by ELISA; format: cell-based, PC-3
[10] = target: Rho-associated protein kinase 1 (Homo sapiens, UniProt Q13464); experiment: Inhibition of ROCK1
[11] = target: T1, 3-phosphoinositide-dependent protein kinase 1; experiment: Inhibition of PDK1-mediated RSK phosphorylation at Ser221 residue in human PC3 cells by ELISA; format: cell-based, PC-3
[12] = tested on: OCI-AML2; experiment: Antiproliferative activity against human OCI-AML2 cells; format: functional, cell-based

Sequence of Rho-associated protein kinase 1 (Q13464 whole entry): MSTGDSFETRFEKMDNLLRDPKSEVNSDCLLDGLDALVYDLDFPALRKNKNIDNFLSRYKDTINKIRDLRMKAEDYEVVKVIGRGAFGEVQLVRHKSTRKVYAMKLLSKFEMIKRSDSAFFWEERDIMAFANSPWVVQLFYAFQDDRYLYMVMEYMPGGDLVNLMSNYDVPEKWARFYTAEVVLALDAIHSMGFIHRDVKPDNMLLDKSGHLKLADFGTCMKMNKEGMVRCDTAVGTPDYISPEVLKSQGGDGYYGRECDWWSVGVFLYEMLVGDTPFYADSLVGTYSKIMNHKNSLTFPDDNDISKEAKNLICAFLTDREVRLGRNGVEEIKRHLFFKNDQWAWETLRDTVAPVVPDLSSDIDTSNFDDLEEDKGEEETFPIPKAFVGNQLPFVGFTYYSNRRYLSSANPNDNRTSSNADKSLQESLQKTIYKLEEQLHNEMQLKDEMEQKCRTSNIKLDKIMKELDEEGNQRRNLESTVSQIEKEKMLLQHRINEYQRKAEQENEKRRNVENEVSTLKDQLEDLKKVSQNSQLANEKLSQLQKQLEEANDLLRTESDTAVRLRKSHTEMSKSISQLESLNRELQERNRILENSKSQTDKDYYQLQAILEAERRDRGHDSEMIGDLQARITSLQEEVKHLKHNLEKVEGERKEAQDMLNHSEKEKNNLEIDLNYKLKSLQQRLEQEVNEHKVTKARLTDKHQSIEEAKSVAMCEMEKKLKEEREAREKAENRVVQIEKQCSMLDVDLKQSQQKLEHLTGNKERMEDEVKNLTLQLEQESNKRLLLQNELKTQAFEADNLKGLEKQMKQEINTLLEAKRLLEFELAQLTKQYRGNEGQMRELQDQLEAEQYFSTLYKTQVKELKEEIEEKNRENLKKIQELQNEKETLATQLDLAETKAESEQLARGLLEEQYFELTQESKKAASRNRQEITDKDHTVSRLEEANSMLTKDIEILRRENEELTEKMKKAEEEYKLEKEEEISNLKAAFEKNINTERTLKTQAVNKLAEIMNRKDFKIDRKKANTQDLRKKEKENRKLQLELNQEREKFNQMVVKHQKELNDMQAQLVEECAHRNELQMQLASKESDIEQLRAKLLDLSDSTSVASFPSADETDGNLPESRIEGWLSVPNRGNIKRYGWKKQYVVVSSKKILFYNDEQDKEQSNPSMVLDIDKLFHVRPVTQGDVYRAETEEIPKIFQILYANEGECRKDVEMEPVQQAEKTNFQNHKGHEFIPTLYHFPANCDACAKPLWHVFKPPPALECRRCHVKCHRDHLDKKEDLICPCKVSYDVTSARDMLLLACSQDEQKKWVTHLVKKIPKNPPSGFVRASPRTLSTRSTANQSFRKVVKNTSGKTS
Sequence of Aurora kinase B (Q96GD4 whole entry): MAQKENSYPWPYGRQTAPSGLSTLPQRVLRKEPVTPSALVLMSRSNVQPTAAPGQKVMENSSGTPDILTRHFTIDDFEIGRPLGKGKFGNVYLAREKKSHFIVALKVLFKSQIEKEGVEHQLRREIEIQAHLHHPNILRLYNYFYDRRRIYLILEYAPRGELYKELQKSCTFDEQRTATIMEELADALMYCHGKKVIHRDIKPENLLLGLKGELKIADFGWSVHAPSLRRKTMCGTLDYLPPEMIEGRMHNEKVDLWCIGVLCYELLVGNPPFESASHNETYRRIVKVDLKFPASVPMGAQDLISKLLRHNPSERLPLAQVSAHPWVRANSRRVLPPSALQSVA

| IC50 [1] | IC50 [2] | IC50 [3] | IC50 [7] | IC50 [8] | IC50 [9] | IC50 [10] | IC50 [11] | IC50 [12] | SMILES | IC50 [4] | IC50 [5] | IC50 [6] |
| --- | --- | --- | --- | --- | --- | --- | --- | --- | --- | --- | --- | --- |
| 0.00316 µM | > 30 µM | > 10 µM | 5.01 µM | > 10 µM | 0.024 µM | > 10 µM | 0.03 µM | 0.46 µM | CNc1nc(-c2ccc3c(N)n[nH]c3c2)cc(N2C[C@@H](C(=O)NC3CCCCC3)OC[C@H]2C)n1 | 19 µM | 0.39 µM | 0.69 µM |
| – | 24 µM | > 10 µM | 1.58 µM | 0.398 µM | – | > 10 µM | – | 0.69 µM | C[C@@H]1C[C@@H](NC(=O)OC(C)(C)C)CN(c2cc(-c3ccc4c(N)[nH]nc4c3)nc(N)n2)C1 | 18 µM | 0.82 µM | 0.4 µM |
| 0.000794 µM | 17 µM | > 10 µM | 0.251 µM | 0.126 µM | 0.009 µM | > 10 µM | 0.019 µM | 0.38 µM | C[C@@H]1C[C@@H](N(C)C(=O)OC(C)(C)C)CN(c2cc(-c3ccc4c(N)n[nH]c4c3)nc(N)n2)C1 | 18 µM | 0.19 µM | 0.24 µM |

Continued, compound first:

| SMILES | IC50 [1] | IC50 [2] | IC50 [3] | IC50 [7] | IC50 [8] | IC50 [9] | IC50 [10] | IC50 [11] | IC50 [12] | IC50 [4] | IC50 [5] | IC50 [6] |
| --- | --- | --- | --- | --- | --- | --- | --- | --- | --- | --- | --- | --- |
| CC[C@@H]1CO[C@H](C(=O)NC2CCCCC2)CN1c1cc(-c2ccc3c(N)n[nH]c3c2)nc(NC)n1 | 0.00631 µM | > 30 µM | > 10 µM | 1.58 µM | > 10 µM | 0.085 µM | > 10 µM | 0.102 µM | 0.89 µM | 16 µM | 0.46 µM | 0.76 µM |
| CNc1nc(-c2ccc3c(N)n[nH]c3c2)cc(N2C[C@@H](C(=O)Nc3ccccc3)CC[C@H]2C)n1 | 0.00158 µM | 8 µM | > 10 µM | 2 µM | > 10 µM | 0.165 µM | 3.16 µM | 0.655 µM | 0.58 µM | 12 µM | 0.46 µM | 0.65 µM |
| CC[C@@H]1CO[C@H](C(=O)Nc2ccccc2)CN1c1cc(-c2ccc3c(N)n[nH]c3c2)nc(NC)n1 | 0.00316 µM | – | > 10 µM | 1.58 µM | 7.94 µM | 0.057 µM | 3.16 µM | 0.088 µM | – | – | – | – |
